Data: ChEMBL document CHEMBL1201862, “PubChem BioAssay data set” (2004)
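Compound exposure: 48 hours, 5 concentrations, 96-well plates. GI50 marks 50% less growth.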 The source made the active and inactive calls. Cut-off read from the data, not from the text of the source: active = GI50 up to about 1.1 µM and inactive = higher.

Legend:
Experiment in all cases: growth of human tumour cells (NCI), 48 h
PC-3 = test system: PC-3
OVCAR-5 = test system: OVCAR-5
CAKI-1 = test system: CAKI-1
NCI-H522 = test system: NCI-H522
SF-295 = test system: SF-295
LOX IMVI = test system: LOX IMVI
CCRF-CEM = test system: CCRF-CEM
NCI-H460 = test system: NCI-H460
ACHN = test system: ACHN
HOP-92 = test system: HOP-92
SK-MEL-28 = test system: SK-MEL-28
SW-620 = test system: SW-620
BT-549 = test system: BT-549
SNB-19 = test system: SNB-19
OVCAR-8 = test system: OVCAR-8
Malme-3M = test system: Malme-3M
K562 = test system: K562
COLO 205 = test system: COLO 205
EKVX = test system: EKVX
HL-60 = test system: HL-60
MDA-N = test system: MDA-N
MDA-MB-231 = test system: MDA-MB-231
HCT-15 = test system: HCT-15
UACC-257 = test system: UACC-257
786-0 = test system: 786-0
TK-10 = test system: TK-10
HOP-62 = test system: HOP-62
MDA-MB-435 = test system: MDA-MB-435
U-251 = test system: U-251
KM12 = test system: KM12
IGROV-1 = test system: IGROV-1
DU-145 = test system: DU-145
UO-31 = test system: UO-31
HT-29 = test system: HT-29
SR = test system: SR
Hs-578T = test system: Hs-578T
RPMI-8226 = test system: RPMI-8226
NCI-H23 = test system: NCI-H23
HCT-116 = test system: HCT-116
A498 = test system: A498
SK-MEL-5 = test system: SK-MEL-5
OVCAR-3 = test system: OVCAR-3
SF-268 = test system: SF-268
SN12C = test system: SN12C
MCF7 = test system: MCF7
NCI-H226 = test system: NCI-H226
SF-539 = test system: SF-539
MOLT-4 = test system: MOLT-4
HCC 2998 = test system: HCC 2998
NCI/ADR-RES = test system: NCI/ADR-RES
RXF 393 = test system: RXF 393
SNB-75 = test system: SNB-75
A549 = test system: A549
UACC-62 = test system: UACC-62
SK-OV-3 = test system: SK-OV-3
OVCAR-4 = test system: OVCAR-4
SK-MEL-2 = test system: SK-MEL-2
M14 = test system: M14
T47D = test system: T47D

O=C(NCCN1CCOCC1)c1cn2c(ccc3sc4ccccc4c(=O)c32)n1
GI50 (PC-3): 20.1 µM (inactive) | GI50 (OVCAR-5): 10.7 µM (inactive) | GI50 (CAKI-1): > 100 µM (inactive) | GI50 (NCI-H522): 10.7 µM (inactive) | GI50 (SF-295): 11 µM (inactive) | GI50 (LOX IMVI): 10.3 µM (inactive) | GI50 (CCRF-CEM): > 10 µM (inactive) | GI50 (NCI-H460): 4.02 µM (inactive) | GI50 (ACHN): 5.36 µM (inactive) | GI50 (HOP-92): 12.8 µM (inactive) | GI50 (SK-MEL-28): 46.9 µM (inactive) | GI50 (SW-620): 4.85 µM (inactive) | GI50 (BT-549): 27.8 µM (inactive) | GI50 (SNB-19): 87.5 µM (inactive) | GI50 (OVCAR-8): > 100 µM (inactive) | GI50 (Malme-3M): 22.7 µM (inactive) | GI50 (K562): 9.86 µM (inactive) | GI50 (COLO 205): 7.24 µM (inactive) | GI50 (EKVX): > 100 µM (inactive) | GI50 (HL-60): 8.02 µM (inactive) | GI50 (MDA-N): 28.3 µM (inactive) | GI50 (MDA-MB-231): 5.35 µM (inactive) | GI50 (HCT-15): 10.3 µM | GI50 (UACC-257): 34.6 µM (inactive) | GI50 (786-0): 13.6 µM (inactive) | GI50 (TK-10): > 100 µM (inactive) | GI50 (HOP-62): 12.3 µM (inactive) | GI50 (MDA-MB-435): 16.4 µM (inactive) | GI50 (U-251): 10 µM (inactive) | GI50 (KM12): > 100 µM (inactive) | GI50 (IGROV-1): 22.9 µM (inactive) | GI50 (DU-145): > 100 µM (inactive) | GI50 (UO-31): > 100 µM (inactive) | GI50 (HT-29): 6.56 µM (inactive) | GI50 (SR): 9.73 µM (inactive) | GI50 (Hs-578T): 12.2 µM (inactive) | GI50 (RPMI-8226): 8.24 µM (inactive) | GI50 (NCI-H23): 20.7 µM (inactive) | GI50 (HCT-116): 5.22 µM (inactive) | GI50 (A498): 17.3 µM (inactive) | GI50 (SK-MEL-5): 9.77 µM (inactive) | GI50 (OVCAR-3): > 100 µM (inactive) | GI50 (SF-268): 12.3 µM (inactive) | GI50 (SN12C): 13.1 µM (inactive) | GI50 (MCF7): 7.08 µM (inactive) | GI50 (NCI-H226): 32 µM (inactive) | GI50 (SF-539): 45.3 µM (inactive) | GI50 (MOLT-4): 3.3 µM (inactive) | GI50 (HCC 2998): 10.1 µM (inactive) | GI50 (NCI/ADR-RES): 20.6 µM (inactive) | GI50 (RXF 393): 22 µM (inactive) | GI50 (SNB-75): 24.8 µM (inactive) | GI50 (A549): 4.62 µM (inactive)

C/C(=N\N=C(/S)SCc1ccccc1)c1ccccn1
GI50 (PC-3): < 0.01 µM (active) | GI50 (CAKI-1): < 0.0504 µM (active) | GI50 (NCI-H522): 0.311 µM (active) | GI50 (SF-295): 0.514 µM (active) | GI50 (CCRF-CEM): < 0.01 µM (active) | GI50 (NCI-H460): 0.26 µM (active) | GI50 (ACHN): < 0.01 µM (active) | GI50 (HOP-92): < 0.0105 µM (active) | GI50 (UACC-62): 0.463 µM (active) | GI50 (SW-620): < 0.01 µM (active) | GI50 (BT-549): 1.13 µM (inactive) | GI50 (SNB-19): 2.97 µM (inactive) | GI50 (OVCAR-8): < 0.01 µM (active) | GI50 (Malme-3M): 0.665 µM (active) | GI50 (K562): < 0.01 µM (active) | GI50 (COLO 205): < 0.01 µM (active) | GI50 (EKVX): < 0.01 µM (active) | GI50 (HL-60): < 0.01 µM (active) | GI50 (MDA-N): 0.971 µM (active) | GI50 (MDA-MB-231): < 0.01 µM (active) | GI50 (HCT-15): < 0.01 µM | GI50 (UACC-257): < 0.01 µM (active) | GI50 (786-0): < 0.01 µM (active) | GI50 (TK-10): 0.339 µM (active) | GI50 (HOP-62): < 0.01 µM (active) | GI50 (MDA-MB-435): 1.02 µM (active) | GI50 (U-251): < 0.0192 µM (active) | GI50 (KM12): 0.266 µM (active) | GI50 (IGROV-1): < 0.01 µM (active) | GI50 (DU-145): 1.54 µM (inactive) | GI50 (UO-31): 0.0183 µM (active) | GI50 (HT-29): < 0.01 µM (active) | GI50 (SK-OV-3): < 0.01 µM (active) | GI50 (SR): < 0.01 µM (active) | GI50 (OVCAR-4): < 0.01 µM (active) | GI50 (Hs-578T): 2.62 µM (inactive) | GI50 (RPMI-8226): < 0.01 µM (active) | GI50 (NCI-H23): < 0.01 µM (active) | GI50 (HCT-116): < 0.01 µM (active) | GI50 (A498): 1.41 µM (inactive) | GI50 (SK-MEL-5): 0.0635 µM (active) | GI50 (OVCAR-3): < 0.01 µM (active) | GI50 (SF-268): 0.184 µM (active) | GI50 (SN12C): < 0.0269 µM (active) | GI50 (SK-MEL-2): 1.27 µM (inactive) | GI50 (MCF7): < 0.01 µM (active) | GI50 (NCI-H226): < 0.01 µM (active) | GI50 (SF-539): 0.303 µM (active) | GI50 (MOLT-4): < 0.01 µM (active) | GI50 (M14): < 0.0267 µM (active) | GI50 (HCC 2998): 0.0476 µM (active) | GI50 (NCI/ADR-RES): < 0.01 µM (active) | GI50 (RXF 393): 1.28 µM (inactive) | GI50 (SNB-75): 2.92 µM (inactive) | GI50 (A549): 0.17 µM (active)

COC(=O)C1=C(C)NC(C)=C(C(=O)OC)C1c1ccccc1NO
GI50 (PC-3): > 100 µM (inactive) | GI50 (OVCAR-5): > 100 µM (inactive) | GI50 (CAKI-1): > 100 µM (inactive) | GI50 (NCI-H522): > 100 µM (inactive) | GI50 (SF-295): > 100 µM (inactive) | GI50 (LOX IMVI): 40 µM (inactive) | GI50 (CCRF-CEM): 68.5 µM (inactive) | GI50 (NCI-H460): > 100 µM (inactive) | GI50 (ACHN): > 100 µM (inactive) | GI50 (HOP-92): > 100 µM (inactive) | GI50 (UACC-62): > 100 µM (inactive) | GI50 (SK-MEL-28): > 100 µM (inactive) | GI50 (SW-620): 68.1 µM (inactive) | GI50 (BT-549): > 100 µM (inactive) | GI50 (SNB-19): > 100 µM (inactive) | GI50 (OVCAR-8): > 100 µM (inactive) | GI50 (Malme-3M): > 100 µM (inactive) | GI50 (K562): 20.1 µM (inactive) | GI50 (COLO 205): > 100 µM (inactive) | GI50 (EKVX): > 100 µM (inactive) | GI50 (HL-60): > 100 µM (inactive) | GI50 (MDA-MB-231): 65.6 µM (inactive) | GI50 (HCT-15): > 100 µM | GI50 (UACC-257): > 100 µM (inactive) | GI50 (786-0): > 100 µM (inactive) | GI50 (TK-10): > 100 µM (inactive) | GI50 (HOP-62): > 100 µM (inactive) | GI50 (MDA-MB-435): 47.2 µM (inactive) | GI50 (U-251): > 100 µM (inactive) | GI50 (KM12): > 100 µM (inactive) | GI50 (IGROV-1): > 100 µM (inactive) | GI50 (DU-145): > 100 µM (inactive) | GI50 (UO-31): > 100 µM (inactive) | GI50 (HT-29): > 100 µM (inactive) | GI50 (SK-OV-3): > 100 µM (inactive) | GI50 (SR): 28.4 µM (inactive) | GI50 (OVCAR-4): > 100 µM (inactive) | GI50 (Hs-578T): > 100 µM (inactive) | GI50 (T47D): > 100 µM (inactive) | GI50 (RPMI-8226): 48.9 µM (inactive) | GI50 (NCI-H23): > 100 µM (inactive) | GI50 (HCT-116): 21.9 µM (inactive) | GI50 (A498): > 100 µM (inactive) | GI50 (SK-MEL-5): > 100 µM (inactive) | GI50 (OVCAR-3): > 100 µM (inactive) | GI50 (SF-268): > 100 µM (inactive) | GI50 (SN12C): > 100 µM (inactive) | GI50 (SK-MEL-2): > 100 µM (inactive) | GI50 (MCF7): > 100 µM (inactive) | GI50 (NCI-H226): > 100 µM (inactive) | GI50 (SF-539): > 100 µM (inactive) | GI50 (MOLT-4): 27.4 µM (inactive) | GI50 (M14): > 100 µM (inactive) | GI50 (HCC 2998): > 100 µM (inactive) | GI50 (NCI/ADR-RES): > 100 µM (inactive) | GI50 (RXF 393): > 100 µM (inactive) | GI50 (A549): > 100 µM (inactive)
